Where a SMILES comes first, the peptide text is derived from it.
How the values were obtained:
[1] = tested on: Langerhans's islets; assay: In vitro glucose stimulated insulin secretion from isolated Langerhans's islets; format: cell-based; conditions: for glucose stimulated insulin secretion, percentage of the effect of 10 mmolar glucose alone: hydrochloride, with 10 mM glucose, isolated islets preincubated 24 hours at 37° C
Method: In vitro determination of the effect or the peptides on the glucose stimulated insulin secretion was carried out on Langerhans's islets isolated by collagenase technique and preincubated 24 hours at 37° C. Secretion tests were conducted with 10 mM of glucose and three peptide concentrations.
All peptides have been tested in the form of their hydrochlorides together with 10 mmolar glucose, and the value is calculated as a percentage of the effect of 10 mmolar glucose alone.

[2] = pharmacological dosages; cited from earlier work

For secretin, the “effect on insulin liberation from isolated Langerhans's islets (in words)” value ([1]; same in vitro conditions as for the present peptides) is listed as “not been possible to make secretin affect the insulin liberation”, the blood sugar level [2] is listed as “without affecting the blood sugar level” and the secretion of insulin [2] is listed as “potentiate the secretion of insulin”.
In the case of `COC(=O)[C@H](CC(C)C)NC(=O)[C@H](CCCNC(=N)N)NC(=O)[C@H](CCC(N)=O)NC(=O)[C@H](CC(C)C)NC(=O)[C@@H](N)CCCNC(=N)N` [Peptide 4, argleuglnargleuOMe, 3HCl] (H-RLQRL-OMe), the “glucose stimulated insulin secretion, percentage of the effect of 10 mmolar glucose alone” value ([1]; peptide 5mM) is reported as 153%, the “glucose stimulated insulin secretion, percentage of the effect of 10 mmolar glucose alone” value ([1]; peptide 5 × 10^-1 mM) is reported as 120% and the “glucose stimulated insulin secretion, percentage of the effect of 10 mmolar glucose alone” value ([1]; peptide 5 × 10^-2 mM) is reported as 135%.
In the case of `COC(=O)[C@H](CC(C)C)NC(=O)[C@H](CCCNC(=N)N)NC(=O)[C@@H](N)CCC(N)=O` [Peptide 1, glnargleuOMe, 2HCl] (H-Gln-Arg-Leu-OMe), the “glucose stimulated insulin secretion, percentage of the effect of 10 mmolar glucose alone” value ([1]; peptide 5mM) is reported as 151%, the “glucose stimulated insulin secretion, percentage of the effect of 10 mmolar glucose alone” value ([1]; peptide 5 × 10^-1 mM) is reported as 113% and the “glucose stimulated insulin secretion, percentage of the effect of 10 mmolar glucose alone” value ([1]; peptide 5 × 10^-2 mM) is reported as 144%.
For `COC(=O)[C@H](CC(C)C)NC(=O)[C@H](CCCNC(=N)N)NC(=O)[C@H](CCC(N)=O)NC(=O)[C@@H](N)CC(C)C` [Peptide 3, leuglnargleuOMe, 2HCl] (H-LQRL-OMe), the “glucose stimulated insulin secretion, percentage of the effect of 10 mmolar glucose alone” value ([1]; peptide 5mM) was 240%, the “glucose stimulated insulin secretion, percentage of the effect of 10 mmolar glucose alone” value ([1]; peptide 5 × 10^-1 mM) was 127% and the “glucose stimulated insulin secretion, percentage of the effect of 10 mmolar glucose alone” value ([1]; peptide 5 × 10^-2 mM) was 124%.
In the case of `COC(=O)[C@H](CC(C)C)NC(=O)[C@H](CCCNC(=N)N)NC(=O)[C@H](CCC(N)=O)NC(=O)[C@H](CC(C)C)NC(=O)[C@H](CCCNC(=N)N)NC(=O)[C@H](C)NC(=O)[C@@H](N)CO` [Peptide 5, seralaargleuglnargleuOMe, 3HCl] (H-SARLQRL-OMe), the “glucose stimulated insulin secretion, percentage of the effect of 10 mmolar glucose alone” value ([1]; peptide 5mM) is reported as 268% and the “glucose stimulated insulin secretion, percentage of the effect of 10 mmolar glucose alone” value ([1]; peptide 5 × 10^-1 mM) is reported as 140%.
With `COC(=O)[C@H](CC(C)C)NC(=O)[C@H](CCCNC(=N)N)NC(=O)[C@H](CCC(N)=O)NC(=O)[C@H](CC(C)C)NC(=O)[C@H](CCCNC(=N)N)NC(=O)[C@H](C)NC(=O)[C@H](CO)NC(=O)[C@@H](N)CC(=O)O` [Peptide 6, aspseralaargleuglnargleuOMe, 3HCl] (H-DSARLQRL-OMe) the “glucose stimulated insulin secretion, percentage of the effect of 10 mmolar glucose alone” value ([1]; peptide 5mM) was 142% and the “glucose stimulated insulin secretion, percentage of the effect of 10 mmolar glucose alone” value ([1]; peptide 5 × 10^-1 mM) was 110%.

From patent US4265884A, “Therapeutically active polypeptides or acid addition salts thereof and a process for producing such compounds” (Nordisk Insulinlaboratorium, priority 1978, dated 1981)
